Laboratory results as given in patent US20230413822A1, “ORAL CANINE FEED AND METHODS FOR C[…] INFESTATIONS IN A CANINE” (In the Bowl Animal Health, Inc., priority 2021, published 2023).

Assays:
[1] = Plasma concentration of mivorilaner in dogs at various daily oral doses (Example 2); format: in vivo; details: average plasma
Excerpt: Methods: A pool of 46 dogs are to be preliminarily infested with ˜50 unfed adult R. sanguineus ticks in order to produce dogs that can suitably sustain a reliable infestation rate, defined as approximately 25% of attached ticks being live at the end of a 48-hour period. The 40 dogs with the highest live attached tick counts are to be selected for inclusion in the study. The dogs are to be randomly assigned to one of a control group and 4 treatment groups.
The dogs are to be housed individually during the study period and are to be fed a commercial dry dog food ration with ad libitum access to water.
Each dog in a treatment group (test groups 2-5) is to receive by mouth a liquid formulation of isoxazoline.
Dogs in the control group are not to receive isoxazoline or any other tick control treatment. Each dog in the treatment group is to be offered its daily ration (dry food) and the individual doses of liquid formulation are to be administered after the individual dog has eaten at least 25% of its total daily ration. After receiving the dose of isoxazoline, the dogs are to be allowed to continue eating. Each dog in treatment groups 3-5 and the control group is to be experimentally infested with 50 adult ticks on test days −2, 5, 12, 19, 28, 35 and 42. Dogs in group 2 are to be infested with 50 adult ticks on test days 19, 28 and 35. Comb counts for live adult ticks are to be conducted on days 2, 7, 14, 21, 30, 37 and 44.
Sample results of the average plasma concentration of isoxazoline in a canine's blood at different dosage levels of mivorilaner are shown in TABLE 3 and FIG. 4.

[2] = Plasma concentration of mivorilaner in dogs fed medicated daily feed (Example 6); format: in vivo; design: unit not given here
Excerpt: Methods: A pool of dogs are to be preliminarily infested with ˜50 unfed adult R. sanguineus ticks in order to produce dogs that can suitably sustain a reliable infestation rate, defined as approximately 25% of attached ticks being live at the end of a 72-hour period. The 24 dogs with the highest live attached tick counts are to be selected for inclusion in the study. The 18 dogs with the highest live attached tick counts are to be randomly assigned to one of a control group and 2 treatment groups. The 6 dogs with the next highest live attached tick counts are to be assigned to a third treatment group.
The dogs are to be housed individually during the study period and are to have ad libitum access to water.
Each dog in a treatment group (test groups 2-4) is to receive a medicated daily feed from study days 0-49. The medicated daily feed is to be offered to the dogs for 1 hour on each of days 0-49 according to test groups listed in TABLE 7.
Sample results of the average plasma concentration of isoxazoline in a canine's blood at different dosage levels are shown in TABLE 8 and FIG. 9 for mivorilaner.

## O=C(CNC(=O)c1sc(C2=NO[C@@](c3cc(Cl)c(F)c(Cl)c3)(C(F)(F)F)C2)c2c1CCC2)NCC(F)F [Mivorilaner, 3-[(5S)-5-(3,5-dichloro-4-fluorophenyl)-5-(trifluoromethyl)-4,5-dihydroisoxazol-3-yl]-N-[2-[(2,2-difluoroethyl)amino]-2-oxoethyl]-5,6-dihydro-4H-cyclopenta[c]thiophene-1-carboxamide]
[1]; Group 4 (0.5 mg/kg/day) oral fed, 1440 hours after initial dose
  Mivorilaner Concentration: 2298.75 ng/mL
[1]; Group 5 (1.0 mg/kg/day) oral fed, 72 hours after initial dose
  Mivorilaner Concentration: 951.25 ng/mL
[1]; Group 5 (1.0 mg/kg/day) oral fed, 120 hours after initial dose
  Mivorilaner Concentration: 1510.00 ng/mL
[1]; Group 5 (1.0 mg/kg/day) oral fed, 168 hours after initial dose
  Mivorilaner Concentration: 1793.75 ng/mL
[1]; Group 5 (1.0 mg/kg/day) oral fed, 336 hours after initial dose
  Mivorilaner Concentration: 2691.25 ng/mL
[1]; Group 5 (1.0 mg/kg/day) oral fed, 504 hours after initial dose
  Mivorilaner Concentration: 3016.25 ng/mL
[1]; Group 5 (1.0 mg/kg/day) oral fed, 720 hours after initial dose
  Mivorilaner Concentration: 3756.25 ng/mL
[1]; Group 5 (1.0 mg/kg/day) oral fed, 888 hours after initial dose
  Mivorilaner Concentration: 3861.25 ng/mL
[1]; Group 5 (1.0 mg/kg/day) oral fed, 1056 hours after initial dose
  Mivorilaner Concentration: 4263.75 ng/mL
[1]; Group 5 (1.0 mg/kg/day) oral fed, 1224 hours after initial dose
  Mivorilaner Concentration: 4838.75 ng/mL
[1]; Group 5 (1.0 mg/kg/day) oral fed, 1440 hours after initial dose
  Mivorilaner Concentration: 4142.50 ng/mL
[2]; Group 2-106 mg/kg feed (anticipated 1 mg/kg daily), Time 1 hr
  average plasma concentration of isoxazoline in a canine's blood: 49.98
[2]; Group 2-106 mg/kg feed (anticipated 1 mg/kg daily), Time 3 hr
  average plasma concentration of isoxazoline in a canine's blood: 292.00
[2]; Group 2-106 mg/kg feed (anticipated 1 mg/kg daily), Time 6 hr
  average plasma concentration of isoxazoline in a canine's blood: 539.00
[2]; Group 2-106 mg/kg feed (anticipated 1 mg/kg daily), Time 10 hr
  average plasma concentration of isoxazoline in a canine's blood: 505.40
[2]; Group 2-106 mg/kg feed (anticipated 1 mg/kg daily), Time 24 hr
  average plasma concentration of isoxazoline in a canine's blood: 458.60
[2]; Group 2-106 mg/kg feed (anticipated 1 mg/kg daily), Time 48 hr
  average plasma concentration of isoxazoline in a canine's blood: 771.83
[2]; Group 2-106 mg/kg feed (anticipated 1 mg/kg daily), Time 96 hr
  average plasma concentration of isoxazoline in a canine's blood: 1570.50
[2]; Group 2-106 mg/kg feed (anticipated 1 mg/kg daily), Time 168 hr
  average plasma concentration of isoxazoline in a canine's blood: 2156.67
[2]; Group 2-106 mg/kg feed (anticipated 1 mg/kg daily), Time 240 hr
  average plasma concentration of isoxazoline in a canine's blood: 3003.33
[2]; Group 2-106 mg/kg feed (anticipated 1 mg/kg daily), Time 336 hr
  average plasma concentration of isoxazoline in a canine's blood: 3290.00
[2]; Group 3-106 mg/kg feed (anticipated 1 mg/kg daily), Time 1 hr
  average plasma concentration of isoxazoline in a canine's blood: 40.41
[2]; Group 3-106 mg/kg feed (anticipated 1 mg/kg daily), Time 3 hr
  average plasma concentration of isoxazoline in a canine's blood: 264.83
[2]; Group 3-106 mg/kg feed (anticipated 1 mg/kg daily), Time 6 hr
  average plasma concentration of isoxazoline in a canine's blood: 467.50
[2]; Group 3-106 mg/kg feed (anticipated 1 mg/kg daily), Time 10 hr
  average plasma concentration of isoxazoline in a canine's blood: 419.17
[2]; Group 3-106 mg/kg feed (anticipated 1 mg/kg daily), Time 24 hr
  average plasma concentration of isoxazoline in a canine's blood: 435.17
[2]; Group 3-106 mg/kg feed (anticipated 1 mg/kg daily), Time 48 hr
  average plasma concentration of isoxazoline in a canine's blood: 781.83
[2]; Group 3-106 mg/kg feed (anticipated 1 mg/kg daily), Time 96 hr
  average plasma concentration of isoxazoline in a canine's blood: 1596.67
[2]; Group 3-106 mg/kg feed (anticipated 1 mg/kg daily), Time 168 hr
  average plasma concentration of isoxazoline in a canine's blood: 2406.67
[2]; Group 3-106 mg/kg feed (anticipated 1 mg/kg daily), Time 240 hr
  average plasma concentration of isoxazoline in a canine's blood: 3026.67
[2]; Group 3-106 mg/kg feed (anticipated 1 mg/kg daily), Time 336 hr
  average plasma concentration of isoxazoline in a canine's blood: 3516.67
[2]; Group 4-318 mg/kg feed (anticipated 3 mg/kg daily), Time 1 hr
  average plasma concentration of isoxazoline in a canine's blood: 143.75
[2]; Group 4-318 mg/kg feed (anticipated 3 mg/kg daily), Time 3 hr
  average plasma concentration of isoxazoline in a canine's blood: 846.50
[2]; Group 4-318 mg/kg feed (anticipated 3 mg/kg daily), Time 6 hr
  average plasma concentration of isoxazoline in a canine's blood: 1265.67
[2]; Group 4-318 mg/kg feed (anticipated 3 mg/kg daily), Time 10 hr
  average plasma concentration of isoxazoline in a canine's blood: 1198.17
[2]; Group 4-318 mg/kg feed (anticipated 3 mg/kg daily), Time 24 hr
  average plasma concentration of isoxazoline in a canine's blood: 1021.17
[2]; Group 4-318 mg/kg feed (anticipated 3 mg/kg daily), Time 48 hr
  average plasma concentration of isoxazoline in a canine's blood: 2011.67
[2]; Group 4-318 mg/kg feed (anticipated 3 mg/kg daily), Time 96 hr
  average plasma concentration of isoxazoline in a canine's blood: 3928.33
[2]; Group 4-318 mg/kg feed (anticipated 3 mg/kg daily), Time 168 hr
  average plasma concentration of isoxazoline in a canine's blood: 6461.67
[2]; Group 4-318 mg/kg feed (anticipated 3 mg/kg daily), Time 240 hr
  average plasma concentration of isoxazoline in a canine's blood: 8696.67
[2]; Group 4-318 mg/kg feed (anticipated 3 mg/kg daily), Time 336 hr
  average plasma concentration of isoxazoline in a canine's blood: 11600.00
